This is an account of results in patent US20240058452A1, “PHARMACEUTICAL COMPOSITION CONTAINING TEMPERATURE-RESPONSIVE IONIC LIQUID” (priority 2019, published 2024).

Data set [1] is described as follows: Confirmation of temperature responsive property of ionic liquid (lower critical solution temperature by absorbance at 450 nm). The data set is classed as physicochemical. Conditions: absorbance 450 nm, heating 20° C.→95° C. (0.5° C./minute). The method, then: (§1) Whether an ionic liquid is a temperature-responsive ionic liquid having a lower critical solution temperature (LCST-type temperature-responsive ionic liquid) is determined by measuring the absorbance of the liquid at a wavelength within a visible light region while gradually increasing the temperature and observing white turbidity, in other words, an abrupt increase in absorbance at a certain temperature caused by an increase in degree of hydrophobicity. The specific procedure is as follows. First, a mixture of an ionic liquid and water is prepared and the layer state at room temperature is observed. Then, the mixture is placed in a refrigerator of 4° C., sufficiently stirred and allowed to stand still for one hour. The state of the mixture is observed. If the layer state of the ionic liquid-water mixture at room temperature is the same as the layer state at 4° C., the mixture is increased in temperature at a rate of 0.5° C./minute within the range of 20° C. to 95° C. and the absorbance of the mixture is measured at 450 nm. Based on a change in absorbance, whether the ionic liquid thus measured is LCST-type temperature-responsive ionic liquid or not can be checked.
The obtained data of absorbance change can be analyzed by differential calculus according to Tm (nucleic acid melting temperature) analysis program to obtain the lower critical solution temperature. In contrast, if the phase state of the ionic liquid-water mixture at room temperature is different from the state at 4° C., the mixture is increased in temperature at a rate of 0.5° C./minute within the range of 5° C. to 40° C. and the absorbance of the mixture is measured at 450 nm. Based on a change in absorbance, whether the ionic liquid thus measured is LCST-type temperature-responsive ionic liquid or not can be checked.
(§2) More specifically, the temperature responsive property was examined by measuring a absorbance at 450 nm at different temperatures in the following measurement conditions to obtain a change in absorbance.
(0.5° C./minute) • Analysis method: calculation by differential calculus using Tm (nucleic acid melting temperature) analysis program
(§3) (0.5° C./minute) • Analysis method: calculation by differential calculus using Tm (nucleic acid melting temperature) analysis program.
as §3

Data set [2] relates to human cultured epidermal model (LabCyte EPI-MODEL12). The note with it: pregabalin 10 mg/mL in 100 mmol/L aqueous solution or dispersion of the ionic liquid, 300 μL donor, 37° C., control in water 252. The method, then: A human cultured epidermal model (LabCyte EPI-MODEL12, Japan Tissue Engineering Co., Ltd.) was used. The phase on the stratum corneum side of the model was defined as a donor phase, whereas the phase on the stratum basal side of the model was defined as a receptor phase. Whether a temperature-responsive ionic liquid enhances the permeation of pregabalin from the donor phase to the receptor phase was examined. The test was carried out in an incubator of 37° C. Pregabalin was dissolved in water, or a 100 mmol/L aqueous solution or water dispersion of a temperature-responsive ionic liquid to a concentration of 10 mg/mL. Each solution (300 μL) was added to the donor phase. Twenty-four hours later, a receptor fluid was sampled and analyzed by LC-MS/MS to obtain the amount of pregabalin permeated. The Hanks' balanced salt solution was used as the receptor fluid.

For data set [3] the following is noted: mixture of ionic liquid and water as obtained in the synthesis. The method, then: as §1, §2
For data set [4], the system named is human cultured epidermal model (LabCyte EPI-MODEL12). Conditions: 37° C. The procedure:
A human cultured epidermal model (LabCyte EPI-MODEL12, Japan Tissue Engineering Co., Ltd.) was used. The phase on the stratum corneum side of the model was defined as a donor phase, whereas the phase on the stratum basal side of the model was defined as a receptor phase. […] The test was carried out in an incubator of 37° C. […] Each solution (300 μL) was added to the donor phase. […] The Hanks' balanced salt solution was used as the receptor fluid.

The conditions of data set [5]: cited from earlier work.
Setting [6] is: ionic liquid-water sample, UV1650PC, initial waiting 10 minutes.
The mark [7] stands for this setting: V-750, initial waiting 5 minutes.

For `CCCC[P+](CCCC)(CCCC)CCCC.O=S(=O)([O-])c1ccccc1` [Reference Example 2-sample, tetrabutylphosphonium benzenesulfonate], the “LCST (lower critical solution temperature)” value in data set [1] (setting [6]) is “None”.

For `CCCCCCCCCC(=O)O.C[N+](C)(C)CCO` [Reference Example 3-sample, cholinium decanoate, reference compound], in data set [2], the “24-hour Cumulative permeation amount of pregabalin” value was determined as 354 μg/cm^2. For the same molecule, in data set [1] (setting [7]), the “LCST (lower critical solution temperature)” value is “None”.

Turning to `C[N+](C)(C)CCO.O=C([O-])c1ccccc1O` [Reference Example 5-sample, cholinium salicylate], the “LCST (lower critical solution temperature)” value in data set [1] (setting [7]) is reported as “None”.

On to `CCCC[P+](CCCC)(CCCC)CCCC.O=C([O-])c1ccc(C(F)(F)F)cc1O` [Synthesis Example 1-sample, tetrabutylphosphonium 4-(trifluoromethyl)salicylate], for which, in data set [3], the “compatibility with water at room temperature” value (“compatibility with water” for short) is “separated from water at room temperature”. In addition, the “24-hour Cumulative permeation amount of pregabalin” value in data set [2] was found to be 3030 μg/cm^2. Further, the “24-hour Cumulative permeation amount of lidocaine hydrochloride monohydrate” value in data set [4] (lidocaine hydrochloride monohydrate 10 mg/mL in 100 mmol/L aqueous solution or dispersion of the ionic liquid, control in water 308) was 1100 μg/cm^2. The “24-hour Cumulative permeation amount of tramadol hydrochloride” value in data set [4] (tramadol hydrochloride 10 mg/mL in 100 mmol/L aqueous solution or dispersion of the ionic liquid, control in water 300) was found to be 2510 μg/cm^2. Also, in data set [1] (setting [6]), the “LCST (lower critical solution temperature)” value stood at 23.6 °C.

Turning to `CCCC[P+](CCCC)(CCCC)CCCC.O=S(=O)([O-])c1ccc(Cl)cc1` [Synthesis Example 12-sample, tetrabutylphosphonium 4-chlorobenzenesulfonate], the “compatibility with water” value in data set [3] is recorded as “separated from water at room temperature”. For the same molecule, the “LCST (lower critical solution temperature)” value in data set [1] (setting [6]) stood at 25.6 °C.

As to `CCCC[P+](CCCC)(CCCC)CCCC.Cc1ccc(S(=O)(=O)[O-])cc1` [Synthesis Example 16-sample, tetrabutylphosphonium p-toluenesulfonate], the “compatibility with water” value in data set [3] is reported as “compatible with water at room temperature”. Besides, in data set [1] (setting [6]), the “LCST (lower critical solution temperature)” value came out at 54.6 °C.

As for `CCc1cccc2c3c([nH]c12)C(CC)(CC(=O)O)OCC3` (stereo not drawn) [etodolac], the “solubility of etodolac to water” value in data set [5] is recorded as 0.11 mg/mL.

Turning to “diisopropanolammonium decanoate [Reference Example 4-sample]”, the “LCST (lower critical solution temperature)” value in data set [1] (setting [7]) is “None”.
